Data from ChEMBL document CHEMBL1201862, “PubChem BioAssay data set” (2004).
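Following 48 hours of exposure in 96-well plates, responses at five concentrations were used to interpolate endpoints linearly. Here, GI50 denotes the concentration required for 50% inhibition of growth.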 Activity calls are given as the source filed them. Rule as the data show it: active = GI50 up to about 1.1 µM and inactive = higher.

Tests used:
Experiment in all cases: DTP human tumour cell line panel, 48 h
SF-268 = system: SF-268
NCI-H460 = system: NCI-H460
U-251 = system: U-251
T47D = system: T47D
Malme-3M = system: Malme-3M
RPMI-8226 = system: RPMI-8226
SF-295 = system: SF-295
A549 = system: A549
OVCAR-8 = system: OVCAR-8
NCI-H522 = system: NCI-H522
HCT-15 = system: HCT-15
DU-145 = system: DU-145
SK-MEL-2 = system: SK-MEL-2
UACC-62 = system: UACC-62
IGROV-1 = system: IGROV-1
MOLT-4 = system: MOLT-4
SR = system: SR
CCRF-CEM = system: CCRF-CEM
SF-539 = system: SF-539
UACC-257 = system: UACC-257
SNB-19 = system: SNB-19
RXF 393 = system: RXF 393
HL-60 = system: HL-60
BT-549 = system: BT-549
COLO 205 = system: COLO 205
K562 = system: K562
OVCAR-5 = system: OVCAR-5
M14 = system: M14
HOP-92 = system: HOP-92
SW-620 = system: SW-620
UO-31 = system: UO-31
Hs-578T = system: Hs-578T
TK-10 = system: TK-10
SK-MEL-28 = system: SK-MEL-28
HCT-116 = system: HCT-116
MDA-MB-435 = system: MDA-MB-435
786-0 = system: 786-0
HCC 2998 = system: HCC 2998
EKVX = system: EKVX
SN12C = system: SN12C
MDA-MB-231 = system: MDA-MB-231
PC-3 = system: PC-3
SNB-75 = system: SNB-75
HT-29 = system: HT-29
SK-OV-3 = system: SK-OV-3
NCI-H23 = system: NCI-H23
MCF7 = system: MCF7
ACHN = system: ACHN
OVCAR-4 = system: OVCAR-4
SK-MEL-5 = system: SK-MEL-5
OVCAR-3 = system: OVCAR-3
LOX IMVI = system: LOX IMVI
CAKI-1 = system: CAKI-1
KM12 = system: KM12
HOP-62 = system: HOP-62
NCI-H226 = system: NCI-H226
NCI/ADR-RES = system: NCI/ADR-RES
MDA-N = system: MDA-N
A498 = system: A498
KM-20L2 = system: KM-20L2

Structure (SMILES): COc1ccc2[nH]c3nnc(N)c-3nc2c1
- GI50 (SF-268): 6.21 µM (inactive)
- GI50 (NCI-H460): 7.46 µM (inactive)
- GI50 (U-251): 10.6 µM (inactive)
- GI50 (T47D): 7.5 µM (inactive)
- GI50 (Malme-3M): 21.8 µM (inactive)
- GI50 (RPMI-8226): 3.87 µM (inactive)
- GI50 (SF-295): 7.66 µM (inactive)
- GI50 (A549): 4.14 µM (inactive)
- GI50 (OVCAR-8): 5.62 µM (inactive)
- GI50 (NCI-H522): 5.83 µM (inactive)
- GI50 (HCT-15): 7.94 µM
- GI50 (DU-145): 7.55 µM (inactive)
- GI50 (SK-MEL-2): 5.28 µM (inactive)
- GI50 (UACC-62): 7.01 µM (inactive)
- GI50 (IGROV-1): 2.59 µM (inactive)
- GI50 (MOLT-4): 5.73 µM (inactive)
- GI50 (SR): 4.1 µM (inactive)
- GI50 (CCRF-CEM): 9.31 µM (inactive)
- GI50 (SF-539): 3.74 µM (inactive)
- GI50 (UACC-257): 17.1 µM (inactive)
- GI50 (SNB-19): 16.5 µM (inactive)
- GI50 (RXF 393): 2.49 µM (inactive)
- GI50 (HL-60): 2.13 µM (inactive)
- GI50 (BT-549): 13.6 µM (inactive)
- GI50 (COLO 205): 3.62 µM (inactive)
- GI50 (K562): 62.4 µM (inactive)
- GI50 (OVCAR-5): 7.8 µM (inactive)
- GI50 (M14): 12.3 µM (inactive)
- GI50 (HOP-92): 10.4 µM (inactive)
- GI50 (SW-620): 9.4 µM (inactive)
- GI50 (UO-31): 9.73 µM (inactive)
- GI50 (Hs-578T): 3.81 µM (inactive)
- GI50 (TK-10): 11.3 µM (inactive)
- GI50 (SK-MEL-28): 11.2 µM (inactive)
- GI50 (HCT-116): 4.04 µM (inactive)
- GI50 (MDA-MB-435): 10.2 µM (inactive)
- GI50 (786-0): 8.3 µM (inactive)
- GI50 (HCC 2998): 14.1 µM (inactive)
- GI50 (EKVX): 4.26 µM (inactive)
- GI50 (SN12C): 18.4 µM (inactive)
- GI50 (MDA-MB-231): 18.9 µM (inactive)
- GI50 (PC-3): 8.43 µM (inactive)
- GI50 (SNB-75): 6.79 µM (inactive)
- GI50 (HT-29): 5.58 µM (inactive)
- GI50 (SK-OV-3): 20.4 µM (inactive)
- GI50 (NCI-H23): 4.17 µM (inactive)
- GI50 (MCF7): 3.99 µM (inactive)
- GI50 (ACHN): 3.33 µM (inactive)
- GI50 (OVCAR-4): 20 µM (inactive)
- GI50 (SK-MEL-5): 8.09 µM (inactive)
- GI50 (OVCAR-3): 3.61 µM (inactive)
- GI50 (LOX IMVI): 4.11 µM (inactive)
- GI50 (CAKI-1): 5.66 µM (inactive)
- GI50 (KM12): 5.68 µM (inactive)
- GI50 (HOP-62): 6.14 µM (inactive)
- GI50 (NCI-H226): 3.85 µM (inactive)
- GI50 (NCI/ADR-RES): 7.01 µM (inactive)
- GI50 (MDA-N): 12 µM (inactive)
- GI50 (A498): 9.79 µM (inactive)

Structure (SMILES): CC(C)SC1CC2C(CC1(C)O)C2(C)C (stereo not drawn)
- GI50 (KM-20L2): 4.3 µM (inactive)

Structure (SMILES): COc1cccc(C2c3cc4c(cc3OC(Nc3ccccc3)C2C)OCO4)c1O (stereo not drawn)
- GI50 (SF-268): 12.2 µM (inactive)
- GI50 (NCI-H460): 4.97 µM (inactive)
- GI50 (U-251): 5.7 µM (inactive)
- GI50 (T47D): 12.7 µM (inactive)
- GI50 (Malme-3M): 7.24 µM (inactive)
- GI50 (RPMI-8226): 6.43 µM (inactive)
- GI50 (SF-295): 5.25 µM (inactive)
- GI50 (A549): 4.95 µM (inactive)
- GI50 (OVCAR-8): 12.9 µM (inactive)
- GI50 (NCI-H522): 4.4 µM (inactive)
- GI50 (HCT-15): 5.62 µM
- GI50 (DU-145): 15.4 µM (inactive)
- GI50 (SK-MEL-2): 13.9 µM (inactive)
- GI50 (UACC-62): 9.02 µM (inactive)
- GI50 (IGROV-1): 8.95 µM (inactive)
- GI50 (MOLT-4): 3.3 µM (inactive)
- GI50 (SR): 3.66 µM (inactive)
- GI50 (CCRF-CEM): 2.58 µM (inactive)
- GI50 (SF-539): 4.07 µM (inactive)
- GI50 (UACC-257): 10.9 µM (inactive)
- GI50 (SNB-19): 15.2 µM (inactive)
- GI50 (RXF 393): 5.05 µM (inactive)
- GI50 (HL-60): 9.93 µM (inactive)
- GI50 (BT-549): 10.6 µM (inactive)
- GI50 (COLO 205): 4.3 µM (inactive)
- GI50 (K562): 2.83 µM (inactive)
- GI50 (OVCAR-5): 30.1 µM (inactive)
- GI50 (M14): 3.84 µM (inactive)
- GI50 (HOP-92): 2.48 µM (inactive)
- GI50 (SW-620): 4.88 µM (inactive)
- GI50 (UO-31): 7.06 µM (inactive)
- GI50 (Hs-578T): 5.81 µM (inactive)
- GI50 (TK-10): 15.8 µM (inactive)
- GI50 (SK-MEL-28): 7.21 µM (inactive)
- GI50 (HCT-116): 7.6 µM (inactive)
- GI50 (MDA-MB-435): 2.15 µM (inactive)
- GI50 (786-0): 9.08 µM (inactive)
- GI50 (HCC 2998): 11.7 µM (inactive)
- GI50 (EKVX): 11.1 µM (inactive)
- GI50 (SN12C): 8.83 µM (inactive)
- GI50 (MDA-MB-231): 12.7 µM (inactive)
- GI50 (PC-3): 4.14 µM (inactive)
- GI50 (SNB-75): 5.6 µM (inactive)
- GI50 (HT-29): 5.74 µM (inactive)
- GI50 (SK-OV-3): 10.3 µM (inactive)
- GI50 (NCI-H23): 8.26 µM (inactive)
- GI50 (MCF7): 6.68 µM (inactive)
- GI50 (ACHN): 10.9 µM (inactive)
- GI50 (OVCAR-4): 36.3 µM (inactive)
- GI50 (SK-MEL-5): 5.12 µM (inactive)
- GI50 (OVCAR-3): 9.18 µM (inactive)
- GI50 (LOX IMVI): 5.21 µM (inactive)
- GI50 (CAKI-1): 13.5 µM (inactive)
- GI50 (KM12): 4.63 µM (inactive)
- GI50 (HOP-62): 12.9 µM (inactive)
- GI50 (NCI-H226): 12 µM (inactive)
- GI50 (NCI/ADR-RES): 7.5 µM (inactive)
- GI50 (MDA-N): 2.42 µM (inactive)
- GI50 (A498): 7.82 µM (inactive)

Structure (SMILES): O=C1C(Cl)=C(Nc2ccc(OC(F)(F)F)cc2)C(=O)c2c(O)ccc(O)c21
- GI50 (SF-268): 0.594 µM (active)
- GI50 (NCI-H460): 1.71 µM (inactive)
- GI50 (U-251): 0.726 µM (active)
- GI50 (T47D): 0.417 µM (active)
- GI50 (Malme-3M): 1.01 µM (active)
- GI50 (RPMI-8226): 0.0598 µM (active)
- GI50 (SF-295): 1.93 µM (inactive)
- GI50 (A549): 1.22 µM (inactive)
- GI50 (OVCAR-8): 0.71 µM (active)
- GI50 (NCI-H522): 0.571 µM (active)
- GI50 (HCT-15): 0.366 µM
- GI50 (DU-145): 0.705 µM (active)
- GI50 (SK-MEL-2): 0.292 µM (active)
- GI50 (UACC-62): 0.975 µM (active)
- GI50 (IGROV-1): 0.745 µM (active)
- GI50 (MOLT-4): 0.359 µM (active)
- GI50 (SR): 0.275 µM (active)
- GI50 (CCRF-CEM): 0.377 µM (active)
- GI50 (SF-539): 1.73 µM (inactive)
- GI50 (UACC-257): 0.959 µM (active)
- GI50 (SNB-19): 1.22 µM (inactive)
- GI50 (RXF 393): 0.519 µM (active)
- GI50 (HL-60): 0.182 µM (active)
- GI50 (BT-549): 0.855 µM (active)
- GI50 (COLO 205): 1.2 µM (inactive)
- GI50 (K562): 0.284 µM (active)
- GI50 (OVCAR-5): 1.76 µM (inactive)
- GI50 (M14): 0.423 µM (active)
- GI50 (HOP-92): 0.826 µM (active)
- GI50 (SW-620): 0.891 µM (active)
- GI50 (UO-31): 0.561 µM (active)
- GI50 (Hs-578T): 0.719 µM (active)
- GI50 (TK-10): 1.48 µM (inactive)
- GI50 (SK-MEL-28): 0.762 µM (active)
- GI50 (HCT-116): 0.203 µM (active)
- GI50 (MDA-MB-435): 0.873 µM (active)
- GI50 (786-0): 0.445 µM (active)
- GI50 (HCC 2998): 0.544 µM (active)
- GI50 (EKVX): 0.877 µM (active)
- GI50 (SN12C): 0.468 µM (active)
- GI50 (MDA-MB-231): 0.443 µM (active)
- GI50 (PC-3): 0.679 µM (active)
- GI50 (SNB-75): 0.735 µM (active)
- GI50 (HT-29): 0.385 µM (active)
- GI50 (SK-OV-3): 1.66 µM (inactive)
- GI50 (NCI-H23): 0.303 µM (active)
- GI50 (MCF7): 0.46 µM (active)
- GI50 (ACHN): 1.45 µM (inactive)
- GI50 (OVCAR-4): 1.57 µM (inactive)
- GI50 (SK-MEL-5): 2.11 µM (inactive)
- GI50 (OVCAR-3): 0.505 µM (active)
- GI50 (LOX IMVI): 0.262 µM (active)
- GI50 (CAKI-1): 1.6 µM (inactive)
- GI50 (KM12): 1.5 µM (inactive)
- GI50 (HOP-62): 1.17 µM (inactive)
- GI50 (NCI-H226): 1.5 µM (inactive)
- GI50 (NCI/ADR-RES): 1.74 µM (inactive)
- GI50 (MDA-N): 2.22 µM (inactive)
- GI50 (A498): 3.87 µM (inactive)
